Where two headings read alike, the source gives them in different places.
Tests used:
[1] = system: H. pylori (H-88 clinical isolate); assay: H. pylori growth in liquid medium, CFU counts, 48 hours; type: cell-based; conditions: 48 hours incubation, FIG. 1A
H. pylori = H. pylori growth with omeprazole, pentagastrin, amoxycillin and combinations, monitored spectrophotometrically; type: cell-based; conditions: single or triple-combined treatment; 18, 24, 46 hours; FIG. 3
Experimental: In an attempt to optimize the antibacterial formulation for eradication of H. pylori, the effect of pentagastrin and omeprazole provided in combination with amoxicillin was tested. Amoxicillin is a commonly accepted antibiotic used for H. pylori treatment. To investigate the effect of triple administration we tested the growth of bacteria in the presence of omeprazole, pentagastrin, amoxycillin, and their possible combinations was tested. Bacteria grown in the absence of any agent was used as a negative control. The level of bacterial growth was monitored spectrophotometrically after 18, 24, and 46 hours of treatment.

gastric acid secretion [2] = assay: Gastric acid secretion after oral PG in fasted rats, no pylorus ligation; type: in vivo, Wistar Hanover rats; conditions: PG 50 μg P.O.
Experimental: (§1) Male and female Wistar Hanover rats, 7-10 weeks of age, were obtained from Harlan Laboratories (Rehovot, Israel). Animals were fed standard chow and received unlimited water supply. The animals were kept in automatically controlled temperature (between 20-24° C.), a 12-hour light/dark cycle, and 15 air changes an hour.
(§2) Rats were fasted (with water freely available) for 24 hours before experimentation. PG or saline were introduced into the stomach by means of a steel feeding needle. Thereafter, the animals were injected with Domitor and Ketaset; the abdominal wall was dissected and gastric fluid (approximately 30 μl) was collected by puncture with a needle (0.45×13 2006-09 Artsana S.P.A., Grandate (CO), Italy) at the indicated time points. Gastric juice was kept frozen at −80° C. until use. In some experiments, the rats were first anesthetized and dissected, after which test reagents were introduced by direct injection into the stomach. […]
(§3) Frozen gastric juice was defrosted at room temperature, mixed by vortexing, and centrifuged for 5 minutes at 14,000 RPM. […] The pH was measured, and NaOH (0.001 N) was added to the sample until pH 7 was reached, as determined by measuring pH using a pH meter (pH211, Hanna Instruments, 35030 Sameola di Rubano, Italy). […]

gastric acid secretion [3] = assay: Gastric acid secretion after oral PG in pylorus-ligated rats; type: in vivo, Wistar Hanover rats; conditions: PG 50 μg P.O., vs saline
Experimental: as §1, §2, §3

[4] = Blood glucose levels in pylorus-ligated rats challenged with oral PG; type: in vivo; conditions: compared to controls, FIG. 6
Experimental: The observed effects of stimulation of gastric acid secretion may occur by different mechanisms. PG may be digested by gastric enzymes and the resulting free amino acids may stimulate acid secretion directly. Alternatively, the intact peptide may be actually absorbed from the gastric lumen and exert its effect on CCK-B receptors on the ECL and parietal cells. […] Since blood glucose levels reflect the activity of peripheral insulin, glucose levels were measured in the pylorus-ligated rats following the administration of PG or saline. These measurements served as a surrogate marker for PG-induced insulin release via activation of CCK-B receptors on the ECL and parietal cells. […] This observation supports the notion that the PG was absorbed intact and thereby could directly exert its effect on gastric tissue and stimulate secretion of gastric acid. […] B. Co-Administration of PG and Omeprazole

acid secretion = conditions: oral PG, cited from earlier work
gastric mucosa = conditions: applied to the luminal surface, in vitro bullfrog model; cited from earlier work

Molecule | bacterial growth, CFU counts [1] | inhibition of bacterial growth (spectrophotometric) (H. pylori) | time of maximal effect on acid secretion after oral PG (gastric acid secretion [2]; p=0.05) [min] | secretion of acid into the gastric lumen (gastric acid secretion [2]; vs saline and S.C. PG, FIG. 4) | gastric acid output (gastric acid secretion [3]; all time points, p<0.05, FIG. 5B) | gastric pH (gastric acid secretion [3]; p<0.05, FIG. 5A) | blood glucose levels [4] | effect on acid secretion (acid secretion; four normal subjects) | effect on acid secretion (acid secretion; three patients with gastrointestinal abnormalities) | effect on gastric mucosa (gastric mucosa)
βAla-Trp-Met-Asp-PheNH2 [PG] | inhibited bacterial growth to an extent similar to that of omeprazole | moderate inhibition | 30 | significant secretion of acid | significantly increased | decreased | decreased | no effect | some effect | did not affect the gastric mucosa
CC1(C)S[C@@H]2[C@H](NC(=O)[C@H](N)c3ccc(O)cc3)C(=O)N2[C@H]1C(=O)O [amoxicillin] |  | moderate inhibition |  |  |  |  |  |  |  | 
caerulein | inhibited bacterial growth to an extent similar to that of omeprazole |  |  |  |  |  |  |  |  | 

Reference: patent publication US7271146B2, “Methods for treatment of Helicobacter pylori-associated disorders” (Vecta Ltd., priority 2002, dated 2007)
